pKd: −log10 of the molar value. Each block holds one compound with its values, some of them ahead of it.
Legend:
[1] = Drug metabolism in CD-1 mouse assessed as 3-O-methylM23 formation by measuring Cmax at 1 mg/kg, iv measured for 24 hrs by UPLC-MS/MS analysis; assay type: ADME, organism-based; parameters: dose 1 mg/kg, time 24 hrs, route iv; details: in vivo
[2] = Drug metabolism in CD-1 mouse assessed as 3-O-methylM23 formation by measuring Tmax at 10 mg/kg, po measured for 24 hrs by UPLC-MS/MS analysis; assay type: ADME, organism-based; details: in vivo
[3] = AUC (0 to 24 hrs) in CD-1 mouse at 1 mg/kg, iv by UPLC-MS/MS analysis; assay type: ADME, organism-based; parameters: time 24 hrs, dose 1 mg/kg, route iv; details: in vivo
[4] = Half life in CD-1 mouse at 1 mg/kg, iv measured for 24 hrs by UPLC-MS/MS analysis; assay type: ADME, organism-based; details: in vivo
[5] = AUC (0 to 24 hrs) in CD-1 mouse at 10 mg/kg, po measured for 24 hrs by UPLC-MS/MS analysis; assay type: ADME, organism-based; parameters: time 24 hrs, dose 10 mg/kg, route po; details: in vivo
[6] = Drug metabolism in CD-1 mouse assessed as 3-O-methylM23 formation by measuring half life at 1 mg/kg, iv measured for 24 hrs by UPLC-MS/MS analysis; assay type: ADME, organism-based; details: in vivo
[7] = Half life in CD-1 mouse at 10 mg/kg, po measured for 24 hrs by UPLC-MS/MS analysis; assay type: ADME, organism-based; details: in vivo
[8] = Drug metabolism in CD-1 mouse assessed as 3-O-methylM23 formation by measuring AUC (0 to 24 hrs) at 10 mg/kg, po by UPLC-MS/MS analysis; assay type: ADME, organism-based; parameters: time 24 hrs, dose 10 mg/kg, route po; details: in vivo
[9] = Cmax in CD-1 mouse at 1 mg/kg, iv measured for 24 hrs by UPLC-MS/MS analysis; assay type: ADME, organism-based; parameters: dose 1 mg/kg, time 24 hrs, route iv; details: in vivo
[10] = Drug metabolism in CD-1 mouse assessed as 3-O-methylM23 formation by measuring half life at 10 mg/kg, po measured for 24 hrs by UPLC-MS/MS analysis; assay type: ADME, organism-based; details: in vivo
[11] = Drug metabolism in CD-1 mouse assessed as 3-O-methylM23 formation by measuring AUC (0 to 24 hrs) at 1 mg/kg, iv by UPLC-MS/MS analysis; assay type: ADME, organism-based; parameters: time 24 hrs, dose 1 mg/kg, route iv; details: in vivo
[12] = Cmax in CD-1 mouse at 10 mg/kg, po measured for 24 hrs by UPLC-MS/MS analysis; assay type: ADME, organism-based; parameters: dose 10 mg/kg, time 24 hrs, route po; details: in vivo
[13] = Drug metabolism in CD-1 mouse assessed as 3-O-methylM23 formation by measuring Cmax at 10 mg/kg, po measured for 24 hrs by UPLC-MS/MS analysis; assay type: ADME, organism-based; parameters: time 24 hrs, dose 10 mg/kg, route po; details: in vivo
[14] = Tmax in CD-1 mouse at 10 mg/kg, po measured for 24 hrs by UPLC-MS/MS analysis; assay type: ADME, organism-based; details: in vivo
[15] = system: Transthyretin (Homo sapiens), P02766 [V50M]; test: Displacement of [125I]-T4 from TTR V30M mutant in human plasma incubated for 1 hr by densitometry relative to control; assay type: cell-free
[16] = system: Transthyretin (Homo sapiens), P02766 [V142I]; test: Potency index, ratio of Kd for Tolcapone to test compound for TTR V122I mutant (unknown origin) expressed in Escherichia coli BL21(DE3) assessed as dissociation constant by ITC analysis
[17] = Clearance in CD-1 mouse at 1 mg/kg, iv measured for 24 hrs by UPLC-MS/MS analysis; assay type: ADME, organism-based; details: in vivo
MRC5 = test: Cytotoxicity against human MRC5 cells assessed as cell viability upto 100 uM incubated for 72 hrs by PrestoBlue assay; assay type: toxicity, cell-based; details: mrc5, 72 h
[18] = Oral bioavailability in CD-1 mouse at 10 mg/kg measured for 24 hrs by UPLC-MS/MS analysis; assay type: ADME, organism-based; details: in vivo
[19] = Elimination rate constant in CD-1 mouse at 10 mg/kg, po measured for 24 hrs by UPLC-MS/MS analysis; assay type: ADME, organism-based; details: in vivo
[20] = Volume of distribution in CD-1 mouse at 10 mg/kg, po measured for 24 hrs by UPLC-MS/MS analysis; assay type: ADME, organism-based; details: in vivo
Transthyretin [21] = molecular target: T1, Transthyretin (Homo sapiens, UniProt P02766); test: Stabilization of wild-type TTR (unknown origin) expressed in Escherichia coli BL21(DE3) assessed as inhibition of TTR aggregation at 20 uM incubated for 30 mins followed by acidification measured for 72 hrs by turbidimetry relative to control; details: time 72.5 hrs
[22] = system: Transthyretin (Homo sapiens), P02766 [V50M]; test: Binding affinity to TTR V30M mutant (unknown origin) expressed in Escherichia coli BL21(DE3) assessed as change in enthalpy at 100 uM by ITC analysis
[23] = system: Transthyretin (Homo sapiens), P02766 [V142I]; test: Binding affinity to TTR V122I mutant (unknown origin) expressed in Escherichia coli BL21(DE3) assessed as change in enthalpy at 100 uM by ITC analysis
Transthyretin [24] = molecular target: T1, Transthyretin; test: Stabilization of wild-type TTR (unknown origin) expressed in Escherichia coli BL21(DE3) assessed as inhibition of TTR aggregation at 1:1 ratio of TTR:compound incubated for 30 mins followed by acidification measured for 72 hrs by turbidimetry relative to control; details: time 72.5 hrs
[25] = Clearance in CD-1 mouse at 10 mg/kg, po measured for 24 hrs by UPLC-MS/MS analysis; assay type: ADME, organism-based; details: in vivo
Transthyretin [26] = molecular target: T1, Transthyretin; test: Binding affinity to wild-type TTR (unknown origin) expressed in Escherichia coli BL21(DE3) assessed as change in entropy at 100 uM by ITC analysis
[27] = system: Transthyretin (Homo sapiens), P02766 [V50M]; test: Stabilization of TTR V30M mutant in human plasma assessed as degree of tetramer stability at 19.1 uM incubated overnight followed by urea addition measured after 5 hrs by isoelectric focusing based densitometry relative to control; assay type: cell-free
Transthyretin [28] = molecular target: T1, Transthyretin; test: Stabilization of wild-type TTR (unknown origin) expressed in Escherichia coli BL21(DE3) assessed as reduction in urea-induced tetramer dissociation at 3.6 uM preincubated for 30 mins followed by urea addition measured for 100 hrs by fluorescence based assay relative to control; parameters: scale not given: the % may be the effect or the level left; details: time 100.5 hrs
[29] = system: Transthyretin (Homo sapiens), P02766 [V50M]; test: Binding affinity to TTR V30M mutant (unknown origin) expressed in Escherichia coli BL21(DE3) assessed as change in entropy at 100 uM by ITC analysis
[30] = system: Transthyretin (Homo sapiens), P02766 [V142I]; test: Stabilization of TTR V122I mutant (unknown origin) expressed in Escherichia coli BL21(DE3) assessed as inhibition of TTR aggregation at 20 uM incubated for 30 mins followed by acidification measured for 72 hrs by turbidimetry relative to control; details: time 72.5 hrs
[31] = system: Transthyretin (Homo sapiens), P02766 [V50M]; test: Binding affinity to TTR V30M mutant (unknown origin) expressed in Escherichia coli BL21(DE3) assessed as change in gibbs free energy at 100 uM by ITC analysis
[32] = system: Transthyretin (Homo sapiens), P02766 [V50M]; test: Stabilization of TTR V30M mutant (unknown origin) expressed in Escherichia coli BL21(DE3) assessed as inhibition of TTR aggregation at 20 uM incubated for 30 mins followed by acidification measured for 72 hrs by turbidimetry relative to control; details: time 72.5 hrs
Transthyretin [33] = molecular target: T1, Transthyretin; test: Binding affinity to wild-type TTR (unknown origin) expressed in Escherichia coli BL21(DE3) assessed as change in enthalpy at 100 uM by ITC analysis
[34] = system: Transthyretin (Homo sapiens), P02766 [V50M]; test: Stabilization of TTR V30M mutant (unknown origin) expressed in Escherichia coli BL21(DE3) assessed as reduction in urea-induced tetramer dissociation at 3.6 uM preincubated for 30 mins followed by urea addition measured for 100 hrs by fluorescence based assay relative to control; parameters: scale not given: the % may be the effect or the level left; details: time 100.5 hrs
[35] = Elimination rate constant in CD-1 mouse at 1 mg/kg, iv measured for 24 hrs by UPLC-MS/MS analysis; assay type: ADME, organism-based; details: in vivo
Transthyretin [36] = molecular target: T1, Transthyretin; test: Binding affinity to wild-type TTR (unknown origin) expressed in Escherichia coli BL21(DE3) assessed as dissociation constant by ITC analysis
[37] = system: Transthyretin (Homo sapiens), P02766 [V50M]; test: Potency index, ratio of Kd for Tolcapone to test compound for TTR V30M mutant (unknown origin) expressed in Escherichia coli BL21(DE3) assessed as dissociation constant by ITC analysis
HepG2 = test: Cytotoxicity against human HepG2 cells assessed as cell viability upto 100 uM incubated for 72 hrs by PrestoBlue assay; assay type: toxicity, cell-based; details: hepg2, 72 h
Transthyretin [38] = molecular target: T1, Transthyretin; test: Potency index, ratio of Kd for Tolcapone to test compound for wild-type TTR (unknown origin) expressed in Escherichia coli BL21(DE3) assessed as dissociation constant by ITC analysis
Transthyretin [39] = molecular target: T1, Transthyretin; test: Binding affinity to wild-type TTR (unknown origin) expressed in Escherichia coli BL21(DE3) assessed as change in gibbs free energy at 100 uM by ITC analysis
[40] = Volume of distribution in CD-1 mouse at 1 mg/kg, iv measured for 24 hrs by UPLC-MS/MS analysis; assay type: ADME, organism-based; details: in vivo
Transthyretin [41] = molecular target: T1, Transthyretin; test: Displacement of [125I]-T4 from TTR in human plasma incubated for 1 hr by densitometry relative to control; assay type: cell-free
HeLa = test: Cytotoxicity against human HeLa cells assessed as cell viability upto 100 uM incubated for 72 hrs by PrestoBlue assay; assay type: toxicity, cell-based
Transthyretin [42] = molecular target: Transthyretin (Homo sapiens, UniProt P02766, V50M); test: Binding affinity to TTR V30M mutant (unknown origin) expressed in Escherichia coli BL21(DE3) assessed as dissociation constant by ITC analysis
Transthyretin [43] = molecular target: Transthyretin (Homo sapiens, UniProt P02766, V142I); test: Binding affinity to TTR V122I mutant (unknown origin) expressed in Escherichia coli BL21(DE3) assessed as dissociation constant by ITC analysis
[44] = system: Transthyretin (Homo sapiens), P02766 [V142I]; test: Binding affinity to TTR V122I mutant (unknown origin) expressed in Escherichia coli BL21(DE3) assessed as change in entropy at 100 uM by ITC analysis
[45] = system: Transthyretin (Homo sapiens), P02766 [V142I]; test: Stabilization of TTR V122I mutant (unknown origin) expressed in Escherichia coli BL21(DE3) assessed as reduction in urea-induced tetramer dissociation at 3.6 uM preincubated for 30 mins followed by urea addition measured for 100 hrs by fluorescence based assay relative to control; parameters: scale not given: the % may be the effect or the level left; details: time 100.5 hrs
Transthyretin [46] = molecular target: T1, Transthyretin; test: Stabilization of wild-type TTR (unknown origin) expressed in Escherichia coli BL21(DE3) assessed as inhibition of TTR aggregation incubated for 30 mins followed by acidification measured for 72 hrs by turbidimetry relative to control; details: time 72.5 hrs
[47] = system: Transthyretin (Homo sapiens), P02766 [V142I]; test: Binding affinity to TTR V122I mutant (unknown origin) expressed in Escherichia coli BL21(DE3) assessed as change in gibbs free energy at 100 uM by ITC analysis

- Cmax [1]: 555.3 ng/mL
- Tmax [2]: < 0.25 h
- AUC(0-t) at 24 h [3]: 761 ng·h/mL
- half-life [4]: 1.5 h
- AUC(0-t) at 24 h [5]: 866 ng·h/mL
- t1/2 [6]: 2.7 h
- half-life [7]: 0.9 h
- AUC [8]: 209.1 ng·h/mL
- Cmax [9]: 1360 ng/mL
- t1/2 [10]: 2.8 h
- AUC [11]: 462.1 ng·h/mL
- Cmax [12]: 744 ng/mL
- Cmax [13]: 96.7 ng/mL
- Tmax [14]: < 0.25 h
Compound: O=C(c1cc(O)cc(F)c1)c1cc(O)c(O)c([N+](=O)[O-])c1

- Activity [15]: 94.5%
- Ratio [16]: > 3
- clearance [17]: 5.25 mL/min/kg
- AUC(0-t) at 24 h [3]: 3160 ng·h/mL
- half-life [4]: 3.5 h
- bioavailability [18]: 85.1%
- k el at 24 h [19]: 1.92e-05 s⁻¹
- Vd [20]: 4.482 L/kg
- inhibition (Transthyretin [21]): 89.2%
- AUC(0-t) at 24 h [5]: 26900 ng·h/mL
- deltaH [22]: -11 kcal/mol
- deltaH [23]: -16.1 kcal/mol
- inhibition (Transthyretin [24]): > 60%
- CL/F [25]: 5.13 mL/min/kg
- -TdeltaS (Transthyretin [26]): 2.8 kcal/mol
- Activity [27]: 17.4%
- Activity (Transthyretin [28]): 94.1%
- -TdeltaS [29]: 0.8 kcal/mol
- inhibition [30]: < 90%
- deltaG [31]: -10.2 kcal/mol
- inhibition [32]: 92%
- deltaH (Transthyretin [33]): -13.4 kcal/mol
- half-life [7]: 10.1 h
- Activity [34]: 79.2%
- k el at 24 h [35]: 5.58e-05 s⁻¹
- pKd (Transthyretin [36]): 7.80
- Ratio [37]: > 12
- Cmax [9]: 4040 ng/mL
- Ratio (Transthyretin [38]): > 3
- deltaG (Transthyretin [39]): -10.6 kcal/mol
- Vd [40]: 1.57 L/kg
- Activity (Transthyretin [41]): 97.3%
- pKd (Transthyretin [42]): 7.44
- pKd (Transthyretin [43]): 7.85
- Cmax [12]: 4180 ng/mL
- -TdeltaS [44]: 5.4 kcal/mol
- Tmax [14]: 0.5 h
- Activity [45]: 92.5%
- inhibition (Transthyretin [46]): > 87.5%
- deltaG [47]: -10.7 kcal/mol
Compound: COc1cc(C(=O)c2cc(O)cc(F)c2)cc([N+](=O)[O-])c1O
- Activity (MRC5): Non-Toxic
- Activity (HepG2): Non-Toxic
- Activity (HeLa): Non-Toxic

Reference: ChEMBL document CHEMBL5335793, “PITB: A high affinity transthyretin aggregation inhibitor with optimal pharmacokinetic properties” (Eur J Med Chem, 2023)
